Consider 11 compounds from patent publication US4526893A, “Isocarbostyril derivatives” (priority 1982, dated 1985).

For data set [1], the target named is T1, right artrium of guinea pig (Cavia porcellus, UniProt H0W3H1).
T1 construct: beat rate of a right artrium of guinea pig; from tissue; host or cells: guinea pig right atrium
Briefly: β-blocking effect: antagonism of increase of beat rate of right atrium of guinea pig caused by isoproterenol. The format is cell-based. The procedure:
This was evaluated in terms of the effect antagonizing an increase of beat rate of a right artrium of guinea pig caused by isoproterenol. Efficiency of blocking by the corresponding compound is expressed in pA2 value (see Van Bossum, Arch. int. Pharmacodyn. Ther. 143, 299, 1963).

The test system of data set [2] is spontaneously hypertensive rats. Briefly: Antihypertensive effect on the spontaneously hypertensive rats. It counts as in vivo, rat. As to conditions: 30 mg/kg, single oral administration, SHR, average blood pressure by aortic cannula. As for the experimental part: Antihypertensive effect on the spontaneously hypertensive rats Five spontaneous rats (SHR), showing more than […] of systolic blood pressure were used. After a single oral administration, antihypertensive activity of the corresponding compound was evaluated in terms of a decrease in average blood pressure measured by means of a cannula embedded in the aorta.

In the next data set the target is T2, aorta of rat (Rattus norvegicus, UniProt P23944).
T2 sequence (P23944 1-561): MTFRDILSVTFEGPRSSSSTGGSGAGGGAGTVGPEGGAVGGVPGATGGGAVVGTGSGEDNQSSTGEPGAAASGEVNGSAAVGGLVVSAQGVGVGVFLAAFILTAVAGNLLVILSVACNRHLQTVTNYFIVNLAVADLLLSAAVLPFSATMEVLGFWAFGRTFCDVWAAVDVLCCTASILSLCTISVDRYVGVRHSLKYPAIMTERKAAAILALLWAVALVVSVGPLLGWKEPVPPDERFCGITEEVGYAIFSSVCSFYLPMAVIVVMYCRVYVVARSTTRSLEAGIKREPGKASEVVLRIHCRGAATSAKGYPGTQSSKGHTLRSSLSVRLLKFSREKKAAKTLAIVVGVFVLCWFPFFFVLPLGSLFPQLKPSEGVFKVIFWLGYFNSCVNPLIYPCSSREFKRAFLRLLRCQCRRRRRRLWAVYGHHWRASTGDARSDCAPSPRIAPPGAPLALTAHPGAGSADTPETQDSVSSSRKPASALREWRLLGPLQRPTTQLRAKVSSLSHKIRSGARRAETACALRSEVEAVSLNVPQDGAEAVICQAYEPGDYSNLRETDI
The data set is described as follows: cell-based.

Data set [3] can be described thus: Acute toxicity of active compounds (LD50). As to conditions: in vivo. The text has this: Beta-blocking agents hitherto known have to be given to hypertensive patients for some period before desirable effects are obtained.
The subject of the next data set is heart rate. Briefly: Influence on the heart rate in unanaesthetized dogs. The format is in vivo, dog. As to conditions: 10 mg/kg oral. The procedure: 4. Influence on the heart rate This was measured in dogs under unanaesthesized condition after oral administration of the corresponding compound.
The conditions of data set [4]: clinical use; cited from earlier work.
The mark [5] stands for this setting: pA2 vs isoproterenol, guinea pig right atrium, read-out: β-Blocking effect (pA2) (converted).
The mark [6] stands for this setting: pA2 vs phenylephrine, rat aorta, read-out: α-Blocking effect (pA2) (converted).

Where two headings read alike, the source gives them in different places.

T1 sequence (H0W3H1 1-470): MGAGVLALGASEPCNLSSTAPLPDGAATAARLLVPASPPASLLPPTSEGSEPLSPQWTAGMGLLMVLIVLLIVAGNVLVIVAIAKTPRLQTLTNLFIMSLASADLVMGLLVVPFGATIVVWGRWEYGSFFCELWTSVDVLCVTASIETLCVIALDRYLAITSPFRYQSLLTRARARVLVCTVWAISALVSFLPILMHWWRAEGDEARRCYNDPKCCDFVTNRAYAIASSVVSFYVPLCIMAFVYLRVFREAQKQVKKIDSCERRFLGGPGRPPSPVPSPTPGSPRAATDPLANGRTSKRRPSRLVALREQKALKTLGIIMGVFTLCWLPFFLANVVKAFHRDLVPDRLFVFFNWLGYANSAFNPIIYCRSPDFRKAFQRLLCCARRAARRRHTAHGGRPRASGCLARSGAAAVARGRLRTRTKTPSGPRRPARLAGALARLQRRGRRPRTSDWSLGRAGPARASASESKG

A word on the LD50: it is the dose at which mortality reaches 50%. With `CC(COc1ccc(O)cc1)NCC(O)COc1c[nH]c(=O)c2ccccc12` (centres unmarked) [4-[3-{2-(4-hydroxyphenoxy)-1-methylethylamino{-2-hydroxy-propoxy]isocarbostyril], the Kb in data set [1] (setting [5]) is 0.00295 µM; on aorta of rat (setting [6]), 0.102 µM. The “Antihypertensive effect: decrease in blood pressure” value (from here on “Antihypertensive effect: decrease”) in data set [2] is recorded as 26 mm Hg. The LD50 in data set [3] (iv, I.V., read-out: LD50 I.V.) is 163 mg/kg; in data set [3] (po, P.O., read-out: LD50 P.O.), over 2000 mg/kg.
For the compound `CC(COc1ccc(N)cc1)NCC(O)COc1c[nH]c(=O)c2ccccc12.Cl` (centres unmarked) [4-[3-{2-(4-aminophenoxy)-1-methylethylamino}-2-hydroxypropoxy]isocarbostyril hydrochloride], in data set [1] (setting [5]), the Kb was 0.00724 µM. In data set [2], the “Antihypertensive effect: decrease” value turned out to be 31 mm Hg.
In the case of `COc1ccc(OCC(C)NCC(O)COc2c[nH]c(=O)c3ccccc23)c(OC)c1.Cl` (centres unmarked) [4-[3-{2-(2,4-dimethoxyphenoxy)-1-methylethylamino}-2-hydroxypropoxy]isocarbostyril hydrochloride], the Kb in data set [1] (setting [5]) is 0.0055 µM; on aorta of rat (setting [6]), 0.0631 µM. Moreover, the “Antihypertensive effect: decrease” value in data set [2] is reported as 32 mm Hg. Besides, the LD50 was 118 mg/kg in data set [3] (iv, I.V., read-out: LD50 I.V.) and over 2000 mg/kg in data set [3] (po, P.O., read-out: LD50 P.O.).
With `CC(COc1ccc([N+](=O)[O-])cc1)NCC(O)COc1c[nH]c(=O)c2ccccc12.Cl` (centres unmarked) [4-[3-{1-methyl-2-(4-nitrophenoxy)ethylamino}-2-hydroxypropoxy]isocarbostyril hydrochloride], the Kb in data set [1] (setting [5]) is 0.0372 µM. In addition, the “Antihypertensive effect: decrease” value in data set [2] is 17 mm Hg.
On to `CC(COc1ccc(N)cc1)NCC(O)COc1c[nH]c(=O)c2ccccc12` (centres unmarked) [4-[3-{2-(4-aminophenoxy)-1-methylethylamino}-2-hydroxypropoxy]isocarbostyril], for which the LD50 in data set [3] (iv, I.V., read-out: LD50 I.V.) is 77.4 mg/kg; in data set [3] (po, P.O., read-out: LD50 P.O.), over 2000 mg/kg.
As for `COc1ccccc1OCC(C)NCC(O)COc1c[nH]c(=O)c2ccccc12.Cl` (centres unmarked) [4-[3-{2-(2-methoxyphenoxy)-1-methylethylamino}-2-hydroxypropoxy]isocarbostyril hydrochloride], the Kb is 0.0107 µM in data set [1] (setting [5]) and 0.0195 µM at aorta of rat (setting [6]). The “Antihypertensive effect: decrease” value in data set [2] is recorded as 35 mm Hg.
Regarding `CC(C)NCC(O)COc1cccc2ccccc12` (centres unmarked) [Propranolol, reference compound], in data set [2], the “Antihypertensive effect: decrease” value worked out at 3 mm Hg. Moreover, the “Influence on heart rate: change” value in the data set with heart rate is reported as “Decrease”.
For the compound `CC(COc1ccccc1)NCC(O)COc1c[nH]c(=O)c2ccccc12.Cl` (centres unmarked) [4-[3-(1-methyl-2-phenoxyethyl-amino)-2-hydroxypropoxy]isocarbostyril hydrochloride], the figures for the Kb (in data set [1] (setting [5]); on aorta of rat (setting [6])) were 0.0132 µM and 0.0269 µM, respectively. For the same compound, in data set [2], the “Antihypertensive effect: decrease” value stood at 15 mm Hg.
Turning to `CC(COc1ccccc1C(N)=O)NCC(O)COc1c[nH]c(=O)c2ccccc12` (centres unmarked) [4-[3-{2-(2-carbamoylphenoxy)-1-methylethylamino}-2-hydroxypropy]isocarbostyril], the Kb in data set [1] (setting [5]) was 0.0148 µM. In data set [2], the “Antihypertensive effect: decrease” value is given as 10 mm Hg.
As for `CC(CCc1ccccc1)NCC(O)c1ccc(O)c(C(N)=O)c1` (centres unmarked) [Labetalol, reference compound], the Kb is 0.038 µM in data set [1] and 0.0417 µM at aorta of rat. For the same compound, the “Antihypertensive effect: decrease” value in data set [2] is reported as 31 mm Hg. Moreover, the “Influence on heart rate: change” value in the data set on heart rate is reported as “Increase”. For the same compound, the “orthostatic hypotension (in words)” value in data set [4] was “serious adverse reaction”.
In the case of `COc1ccc(OCC(C)NCC(O)COc2c[nH]c(=O)c3ccccc23)cc1.Cl` (centres unmarked) [4-[3-{2-(4-methoxyphenoxy)-1-methylethylamino}-2-hydroxypropoxy]isocarbostyril hydrochloride], the Kb in data set [1] (setting [5]) is 0.00955 µM. In addition, in data set [2], the “Antihypertensive effect: decrease” value was 21 mm Hg. In addition, the 50% lethal dose (LD50) in data set [3] (iv, I.V., read-out: LD50 I.V.) was 137 mg/kg; in data set [3] (po, P.O., read-out: LD50 P.O.) it was over 2000 mg/kg.
